Tests used:
TRKA kinase = TRKA kinase (Homo sapiens (Human), UniProt P04629); experiment: Assay of small molecular compounds for inhibiting the activity of TRKA kinase (LANCE TR-FRET); format: biochemical
Summary of the method: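 LANCE TR-FRET with ULight-TK peptide; compounds pre-incubated 5 min with TRKA (2× solution 2 nM), then substrate/ATP added (4× mix: 400 nM peptide, 40 μM ATP). Reaction 60 min at room temperature in dark, 1% DMSO final; stopped, detection developed 60 min, signal read.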

VEGFR-2 kinase = VEGFR-2 kinase (Homo sapiens (Human), UniProt P35968); experiment: Assay of small molecular compounds for inhibiting the activity of VEGFR-2 kinase (LANCE TR-FRET); format: biochemical; settings: read-out: VEGFR2 IC50
Summary of the method: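 LANCE TR-FRET with human VEGFR-2 (2× stock 0.5 nM) preincubated 30 min with compound (final 2500 to 0.042 nM, 11-point 3-fold), then ULight-JAK-1 (Tyr1023) peptide/ATP added (4× stocks 200 nM/40 μM). Reaction 60 min room temperature, 4% DMSO; IC50 from inhibition-rate curve.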

Ba/F3 LMNA-NTRK1 cells = experiment: Assay for inhibiting the proliferation of Ba/F3 LMNA-NTRK1 cells (CCK-8); format: cell-based; settings: Mus musculus, BaF3
Summary of the method: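 Cells were seeded and cultured overnight, then treated with graded compound concentrations (final DMSO 0.25%) for 72 h. CCK-8 was added for 1–2 h at 37 °C and OD450 read. Survival was normalised to untreated and cell-free blank wells, and IC50 was fitted.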

Chain of TRKA kinase (P04629 33-796): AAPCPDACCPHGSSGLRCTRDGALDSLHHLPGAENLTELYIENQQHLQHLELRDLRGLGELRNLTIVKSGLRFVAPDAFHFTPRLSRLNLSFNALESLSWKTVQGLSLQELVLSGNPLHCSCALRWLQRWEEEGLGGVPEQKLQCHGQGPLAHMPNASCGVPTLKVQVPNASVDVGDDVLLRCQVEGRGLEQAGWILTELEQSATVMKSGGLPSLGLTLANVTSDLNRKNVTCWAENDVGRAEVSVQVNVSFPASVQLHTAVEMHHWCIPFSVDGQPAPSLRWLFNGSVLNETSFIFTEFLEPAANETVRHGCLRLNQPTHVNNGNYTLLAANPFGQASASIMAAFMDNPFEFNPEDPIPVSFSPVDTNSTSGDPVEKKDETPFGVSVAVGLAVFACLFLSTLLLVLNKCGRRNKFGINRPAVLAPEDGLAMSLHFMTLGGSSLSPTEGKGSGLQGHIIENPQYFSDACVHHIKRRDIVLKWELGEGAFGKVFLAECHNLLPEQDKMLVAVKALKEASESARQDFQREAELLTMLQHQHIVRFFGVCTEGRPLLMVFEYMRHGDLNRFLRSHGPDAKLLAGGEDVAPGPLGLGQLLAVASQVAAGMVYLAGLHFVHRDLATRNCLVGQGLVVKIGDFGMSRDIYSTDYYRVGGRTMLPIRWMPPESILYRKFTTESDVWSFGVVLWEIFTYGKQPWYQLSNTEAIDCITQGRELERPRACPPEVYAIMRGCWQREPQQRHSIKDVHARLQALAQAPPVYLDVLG
Chain of VEGFR-2 kinase (P35968 20-1356): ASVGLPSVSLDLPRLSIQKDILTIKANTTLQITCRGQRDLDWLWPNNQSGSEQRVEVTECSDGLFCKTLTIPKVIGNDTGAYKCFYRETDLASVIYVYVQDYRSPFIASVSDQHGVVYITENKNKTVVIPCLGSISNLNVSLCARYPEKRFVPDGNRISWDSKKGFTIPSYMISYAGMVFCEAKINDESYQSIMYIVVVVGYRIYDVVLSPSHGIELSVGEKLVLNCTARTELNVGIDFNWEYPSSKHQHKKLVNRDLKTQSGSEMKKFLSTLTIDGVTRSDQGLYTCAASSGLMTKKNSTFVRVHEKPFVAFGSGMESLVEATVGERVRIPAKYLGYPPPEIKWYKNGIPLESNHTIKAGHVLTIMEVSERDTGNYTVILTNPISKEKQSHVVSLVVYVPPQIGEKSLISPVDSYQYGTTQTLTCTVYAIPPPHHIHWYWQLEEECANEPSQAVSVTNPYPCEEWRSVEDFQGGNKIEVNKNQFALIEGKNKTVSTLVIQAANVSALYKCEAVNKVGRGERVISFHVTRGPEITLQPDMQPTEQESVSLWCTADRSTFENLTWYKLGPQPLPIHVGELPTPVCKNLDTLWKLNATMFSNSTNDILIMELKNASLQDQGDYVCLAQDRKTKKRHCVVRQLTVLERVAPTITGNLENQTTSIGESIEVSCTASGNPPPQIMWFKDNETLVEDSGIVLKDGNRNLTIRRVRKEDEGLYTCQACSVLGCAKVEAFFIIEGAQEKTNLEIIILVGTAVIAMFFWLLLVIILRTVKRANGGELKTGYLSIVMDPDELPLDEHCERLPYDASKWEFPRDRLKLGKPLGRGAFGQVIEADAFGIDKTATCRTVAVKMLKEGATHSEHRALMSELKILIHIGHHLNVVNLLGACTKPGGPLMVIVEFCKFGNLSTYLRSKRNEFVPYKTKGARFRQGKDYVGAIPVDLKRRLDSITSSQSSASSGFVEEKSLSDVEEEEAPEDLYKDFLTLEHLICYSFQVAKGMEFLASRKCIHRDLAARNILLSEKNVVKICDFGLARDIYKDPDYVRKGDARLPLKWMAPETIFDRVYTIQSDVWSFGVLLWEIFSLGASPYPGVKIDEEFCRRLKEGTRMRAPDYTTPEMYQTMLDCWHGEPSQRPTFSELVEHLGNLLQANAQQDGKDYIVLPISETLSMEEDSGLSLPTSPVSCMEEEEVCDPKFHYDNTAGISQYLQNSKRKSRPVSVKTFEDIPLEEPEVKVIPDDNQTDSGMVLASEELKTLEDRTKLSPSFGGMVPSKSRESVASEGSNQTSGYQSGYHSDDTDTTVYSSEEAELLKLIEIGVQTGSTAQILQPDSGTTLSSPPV

SMILES	IC50 (TRKA kinase)	IC50 (VEGFR-2 kinase)	IC50 (Ba/F3 LMNA-NTRK1 cells)
CCOc1ccn(-c2ccc(F)cc2)c(=O)c1C(=O)Nc1ccc(Oc2ncnc3cc(OCCCN4CCOCC4)c4c(c23)OCCO4)c(F)c1 [Example 6, N-(3-fluoro-4-((5-(3-morpholinopropoxy)-2,3-dihydro-[1,4]dioxino[2,3-f]quinazolin-10-yl)oxy)phenyl)-1-(4-fluorophenyl)-4-ethoxy-2-oxo-1,2-dihydropyridine-3-carboxamide]	< 50 nM	50 to 500 nM	< 50 nM
COc1cc2ncnc(Oc3ccc(NC(=O)c4cn(C)c(=O)n(-c5ccc(F)cc5)c4=O)cc3F)c2c2c1OCCO2 [Example 29, N-(3-fluoro-4-((5-methoxy-2,3-dihydro-[1,4]dioxino[2,3-f]quinazolin-10-yl)oxy)phenyl)-3-(4-fluorophenyl)-1-methyl-2,4-dioxo-1,2,3,4-tetrahydropyrimidine-5-carboxamide]	< 50 nM	500 to 5000 nM	< 50 nM
Cn1cc(C(=O)Nc2ccc(Oc3ncnc4cc(OCCCN5CCOCC5)c5c(c34)OCCO5)c(F)c2)c(=O)n(-c2ccc(F)cc2)c1=O [Example 30, N-(3-fluoro-4-((5-(3-morpholinopropoxy)-2,3-dihydro-[1,4]dioxino[2,3-f]quinazolin-10-yl)oxy)phenyl)-3-(4-fluorophenyl)-1-methyl-2,4-dioxo-1,2,3,4-tetrahydropyrimidine-5-carboxamide]	< 50 nM	≤ 50 nM	< 50 nM
CC(C)n1cc(C(=O)Nc2ccc(Oc3ccnc4cc(OCCCN5CCOCC5)c5c(c34)OCCO5)c(Cl)c2)c(=O)n(-c2ccc(F)cc2)c1=O [Example 97, N-(3-chloro-4-((5-(3-morpholinopropoxy)-2,3-dihydro-[1,4]dioxino[2,3-f]quinolin-10-yl)oxy)phenyl)-3-(4-fluorophenyl)-1-isopropyl-2,4-dioxo-1,2,3,4-tetrahydropyrimidine-5-carboxamide]	< 50 nM	500 to 5000 nM	< 50 nM
COc1cc2nccc(Oc3ccc(NC(=O)c4cn(C)c(=O)n(-c5ccc(F)cc5)c4=O)c(Cl)c3)c2c2c1OCCO2 [Example 125, N-(2-chloro-4-((5-methoxy-2,3-dihydro-[1,4]dioxino[2,3-f]quinolin-10-yl)oxy)phenyl)-3-(4-fluorophenyl)-1-methyl-2,4-dioxo-1,2,3,4-tetrahydropyrimidine-5-carboxamide]	< 50 nM		< 50 nM
CCOc1cc2nccc(Oc3ccc(NC(=O)c4cccn(-c5ccc(F)cc5)c4=O)c(Cl)c3)c2c2c1OCCO2 [Example 127, N-(2-chloro-4-((5-ethoxy-2,3-dihydro-[1,4]dioxino[2,3-f]quinolin-10-yl)oxy)phenyl)-1-(4-fluorophenyl)-2-oxo-1,2-dihydropyridine-3-carboxamide]	< 50 nM	500 to 5000 nM	< 50 nM
CCOc1cc2nccc(Oc3ccc(NC(=O)c4c(OC)ccn(-c5ccc(F)cc5)c4=O)c(Cl)c3)c2c2c1OCCO2 [Example 128, N-(2-chloro-4-((5-ethoxy-2,3-dihydro-[1,4]dioxino[2,3-f]quinolin-10-yl)oxy)phenyl)-1-(4-fluorophenyl)-4-methoxy-2-oxo-1,2-dihydropyridine-3-carboxamide]	< 50 nM	500 to 5000 nM	< 50 nM
CCOc1cc2nccc(Oc3ccc(NC(=O)c4cn(C)c(=O)n(-c5ccc(F)cc5)c4=O)c(Cl)c3)c2c2c1OCCO2 [Example 129, N-(2-chloro-4-((5-ethoxy-2,3-dihydro-[1,4]dioxino[2,3-f]quinolin-10-yl)oxy)phenyl)-3-(4-fluorophenyl)-1-methyl-2,4-dioxo-1,2,3,4-tetrahydropyrimidine-5-carboxamide]	< 50 nM	500 to 5000 nM	< 50 nM
CCOc1cc2nccc(Oc3ccc(NC(=O)c4c(OCC)ccn(-c5ccc(F)cc5)c4=O)c(Cl)c3)c2c2c1OCCO2 [Example 130, N-(2-chloro-4-((5-ethoxy-2,3-dihydro-[1,4]dioxino[2,3-f]quinolin-10-yl)oxy)phenyl)-1-(4-fluorophenyl)-4-ethoxy-2-oxo-1,2-dihydropyridine-3-carboxamide]	< 50 nM	50 to 500 nM	< 50 nM
O=C(Nc1ccc(Oc2ccnc3cc(OCCCN4CCCCC4)c4c(c23)OCCO4)cc1Cl)c1cccn(-c2ccc(F)cc2)c1=O [Example 135, N-(2-chloro-4-((5-((3-piperidin-1-yl)propoxy)-2,3-dihydro-[1,4]dioxino[2,3-f]quinolin-10-yl)oxy)phenyl)-1-(4-fluorophenyl)-2-oxo-1,2-dihydropyridine-3-carboxamide]	< 50 nM	≤ 50 nM	< 50 nM
COc1ccn(-c2ccc(F)cc2)c(=O)c1C(=O)Nc1ccc(Oc2ccnc3cc(OCCCN4CCCCC4)c4c(c23)OCCO4)cc1Cl [Example 136, N-(2-chloro-4-((5-((3-piperidin-1-yl)propoxy)-2,3-dihydro-[1,4]dioxino[2,3-f]quinolin-10-yl)oxy)phenyl)-1-(4-fluorophenyl)-4-methoxy-2-oxo-1,2-dihydropyridine-3-carboxamide]	< 50 nM	50 to 500 nM	< 50 nM
Cn1cc(C(=O)Nc2ccc(Oc3ccnc4cc(OCCCN5CCCCC5)c5c(c34)OCCO5)cc2Cl)c(=O)n(-c2ccc(F)cc2)c1=O [Example 137, N-(2-chloro-4-((5-((3-piperidin-1-yl)propoxy)-2,3-dihydro-[1,4]dioxino[2,3-f]quinolin-10-yl)oxy)phenyl)-3-(4-fluorophenyl)-1-methyl-2,4-dioxo-1,2,3,4-tetrahydropyrimidine-5-carboxamide]	< 50 nM	50 to 500 nM	< 50 nM
CCOc1ccn(-c2ccc(F)cc2)c(=O)c1C(=O)Nc1ccc(Oc2ccnc3cc(OCCCN4CCCCC4)c4c(c23)OCCO4)cc1Cl [Example 138, N-(2-chloro-4-((5-((3-piperidin-1-yl)propoxy)-2,3-dihydro-[1,4]dioxino[2,3-f]quinolin-10-yl)oxy)phenyl)-1-(4-fluorophenyl)-4-ethoxy-2-oxo-1,2-dihydropyridine-3-carboxamide]	< 50 nM	≤ 50 nM	< 50 nM
CC(C)(O)COc1cc2nccc(Oc3ccc(NC(=O)c4cccn(-c5ccc(F)cc5)c4=O)c(Cl)c3)c2c2c1OCCO2 [Example 139, N-(2-chloro-4-((5-(2-hydroxy-2-methylpropoxy)-2,3-dihydro-[1,4]dioxino[2,3-f]quinolin-10-yl)oxy)phenyl)-1-(4-fluorophenyl)-2-oxo-1,2-dihydropyridine-3-carboxamide]	< 50 nM	50 to 500 nM	< 50 nM
COc1ccn(-c2ccc(F)cc2)c(=O)c1C(=O)Nc1ccc(Oc2ccnc3cc(OCC(C)(C)O)c4c(c23)OCCO4)cc1Cl [Example 140, N-(2-chloro-4-((5-(2-hydroxy-2-methylpropoxy)-2,3-dihydro-[1,4]dioxino[2,3-f]quinolin-10-yl)oxy)phenyl)-1-(4-fluorophenyl)-4-methoxy-2-oxo-1,2-dihydropyridine-3-carboxamide]	< 50 nM	500 to 5000 nM	< 50 nM
O=C(Nc1ccc(Oc2ccnc3cc(OCCCN4CCOCC4)c4c(c23)OCCO4)cc1Cl)c1cccn(-c2ccc(F)cc2)c1=O [Example 143, N-(2-chloro-4-((5-(3-morpholinopropoxy)-2,3-dihydro-[1,4]dioxino[2,3-f]quinolin-10-yl)oxy)phenyl)-1-(4-fluorophenyl)-2-oxo-1,2-dihydropyridine-3-carboxamide]	< 50 nM	≤ 50 nM	< 50 nM
COc1cc2nccc(Oc3ccc(NC(=O)c4cn(C)c(=O)n(-c5ccc(F)cc5)c4=O)cc3)c2c2c1OCCO2 [Example 145, N-(4-((5-methoxy-2,3-dihydro-[1,4]dioxino[2,3-f]quinolin-10-yl)oxy)phenyl)-3-(4-fluorophenyl)-1-methyl-2,4-dioxo-1,2,3,4-tetrahydropyrimidine-5-carboxamide]	< 50 nM	500 to 5000 nM	< 50 nM
O=C(Nc1ccc(Oc2ccnc3ccc4c(c23)OCCO4)c(F)c1)c1cccn(-c2ccc(F)cc2)c1=O [Example 169, N-(4-((2,3-dihydro-[1,4]dioxino[2,3-f]quinolin-10-yl)oxy)-3-fluorophenyl)-1-(4-fluorophenyl)-2-oxo-1,2-dihydropyridine-3-carboxamide]	< 50 nM	50 to 500 nM	
O=C(Nc1ccc(Oc2ccnc3ccc4c(c23)OCCO4)cc1F)c1cccn(-c2ccc(F)cc2)c1=O [Example 170, N-(4-((2,3-dihydro-[1,4]dioxino[2,3-f]quinolin-10-yl)oxy)-2-fluorophenyl)-1-(4-fluorophenyl)-2-oxo-1,2-dihydropyridine-3-carboxamide]	< 50 nM	500 to 5000 nM	
CCOc1ccn(-c2ccc(F)cc2)c(=O)c1C(=O)Nc1ccc(Oc2ccnc3ccc4c(c23)OCCO4)cc1F [Example 171, N-(4-((2,3-dihydro-[1,4]dioxino[2,3-f]quinolin-10-yl)oxy)-2-fluorophenyl)-1-(4-fluorophenyl)-4-ethoxy-2-oxo-1,2-dihydropyridine-3-carboxamide]	< 50 nM	500 to 5000 nM	
COc1ccn(-c2ccc(F)cc2)c(=O)c1C(=O)Nc1ccc(Oc2ccnc3ccc4c(c23)OCCO4)cc1F [Example 172, N-(4-((2,3-dihydro-[1,4]dioxino[2,3-f]quinolin-10-yl)oxy)-2-fluorophenyl)-1-(4-fluorophenyl)-4-methoxy-2-oxo-1,2-dihydropyridine-3-carboxamide]	< 50 nM	> 5000 nM	

From patent publication US12202835B2, “Substituted aromatic ring-linked dioxinoquinazolines and dioxinoquinolines as kinase inhibitors” (BEIJING SCITECH-MQ PHARMACEUTICALS LIMITED, priority 2018, dated 2025)
